For 56 molecules, melting point results are on record in patent US7166598B2, “Piperazine derivatives” (Astellas Pharma Inc., priority 1998, dated 2007).

Regarding `Cl.Cn1cc(CN2CCN(C(=O)c3cc(C(F)(F)F)cc(C(F)(F)F)c3)[C@H](Cc3ccc(F)c(O)c3)C2)cn1`, the melting point (as a rule, the temperature of the solid-liquid transition) fell in the range of 160 to 170 °C. Take `Cl.Cl.O=C(c1cc(C(F)(F)F)cc(C(F)(F)F)c1)N1CCN(CCCc2cccnc2)C[C@H]1Cc1ccc(F)c(O)c1`: the melting point was in the range of 80 to 95 °C. `COc1cc(C(=O)N2CCN(Cc3cnn(C)c3)C[C@H]2Cc2ccc(Cl)cc2)cc(C(F)(F)F)c1.Cl` registered a melting point of 70 to 100 °C.

`COc1cc(C(=O)N2CCN(Cc3cnn(C)c3)C[C@H]2Cc2ccc3ccccc3c2)cc(C(F)(F)F)c1.Cl` showed a melting point of 226 to 228 °C. In turn, `COc1cc(C(=O)N2CCN(Cc3cccnc3)C[C@H]2Cc2ccc(C(F)(F)F)cc2)cc(C(F)(F)F)c1.Cl.Cl` yielded a melting point of 101 to 108 °C. The molecule `Cl.Cl.O=C(c1cc(C(F)(F)F)cc(C(F)(F)F)c1)N1CCN(Cc2cccnc2)C[C@H]1Cc1ccc(Cl)c(O)c1` showed a melting point of 187 to 192 °C. With `COC[C@@H]1CN(CCN2CCN(C(=O)c3cc(C(F)(F)F)cc(S(=O)(=O)N4CCCC4)c3)[C@H](Cc3ccc(C)c(O)c3)C2)CCO1.Cl.Cl` the figure was 125 to 177 °C. Consider `CSc1cc(C(=O)N2CCN(CCN3C[C@@H](C)O[C@@H](C)C3)C[C@H]2Cc2ccc(Cl)c(O)c2)cc(C(F)(F)F)c1.Cl.Cl`, for which the melting point lay within 162 to 178 °C.

As to `CSc1cc(C(=O)N2CCN(CCN3CCc4ncccc4C3)C[C@H]2Cc2ccc(Cl)c(O)c2)cc(C(F)(F)F)c1.Cl.Cl.Cl`, the melting point is 169 to 178 °C. In turn, `COC[C@@H]1CN(CCN2CCN(C(=O)c3cc([N+](=O)[O-])cc(C(F)(F)F)c3)[C@H](Cc3ccc(C)c(O)c3)C2)CCO1.Cl.Cl` registered a melting point of 181 to 185 °C. `COC[C@@H]1CN(C/C=C/CN2CCN(C(=O)c3cc(C(F)(F)F)cc(C(F)(F)F)c3)[C@H](Cc3ccc(C)c(O)c3)C2)CCO1.Cl.Cl`: the melting point is 50 to 70 °C. In turn, `Cc1ccc(C[C@@H]2CN(CCN3CCOc4cccnc43)CCN2C(=O)c2cc(C(F)(F)F)cc(C(F)(F)F)c2)cc1O.Cl.Cl` showed a melting point of 190 to 200 °C. Consider `Cc1ccc(C[C@@H]2CN(Cc3cccnc3)CCN2C(=O)c2cc(C(F)(F)F)cc(C(F)(F)F)c2)cc1O.Cl.Cl`, for which the melting point is 110 to 130 °C.

`Cc1ccc(C[C@@H]2CN(CCN3CCc4ncccc4C3)CCN2C(=O)c2cc(C(F)(F)F)cc(C(F)(F)F)c2)cc1O.Cl.Cl.Cl` returned a melting point of 255 to 270 °C. For `Cc1cc(C(=O)N2CCN(CCN3CCc4ncccc4C3)C[C@H]2Cc2ccc(Cl)cc2)cc(C(F)(F)F)c1.Cl.Cl.Cl`, the melting point was in the range of 102.5 to 110.4 °C. With `CN(C)c1cc(C(=O)N2CCN(CCN3CCc4ncccc4C3)C[C@H]2Cc2ccc(Cl)cc2)cc(C(F)(F)F)c1.Cl.Cl.Cl` the figure was 209 to 214 °C; with `Cc1ccc(CC2CN(C/C=C/c3cccnc3)CCN2C(=O)c2cc(C(F)(F)F)cc(C(F)(F)F)c2)cc1O.Cl.Cl` (centres unmarked), 60 to 80 °C. With `Cc1ccc(C[C@@H]2CN(Cc3csc(N(C)C)n3)CCN2C(=O)c2cc(C(F)(F)F)cc(C(F)(F)F)c2)cc1O.Cl.Cl` the figure was 162 to 165 °C; with `CNc1noc(CN2CCN(C(=O)c3cc(C(F)(F)F)cc(C(F)(F)F)c3)[C@H](Cc3ccc(C)c(O)c3)C2)n1.Cl.Cl`, 145 to 160 °C. On to `Cl.Cl.O=C(c1cc(C(F)(F)F)cc(C(F)(F)F)c1)N1CCN(CCCc2cccnc2)C[C@H]1Cc1ccc(C(F)(F)F)cc1`, for which the melting point was in the range of 64 to 74 °C. With `Cl.Cl.O=C(c1cc(C(F)(F)F)cc(C(F)(F)F)c1)N1CCN(CCCc2cccnc2)C[C@H]1Cc1ccc(F)cc1`, the melting point was 110.2 to 117.5 °C. `COc1cc(C(=O)N2CCN(CCCc3cccnc3)C[C@H]2Cc2ccc(F)cc2)cc(C(F)(F)F)c1.Cl.Cl` registered a melting point of 111.5 to 118.3 °C.

For the molecule `COC[C@@H]1CN(CCN2CCN(C(=O)c3cc(C(F)(F)F)cc(C(F)(F)F)c3)[C@H](Cc3ccc(C)c(N4CCOCC4)c3)C2)CCO1.Cl.Cl.Cl`, the melting point was 150 to 170 °C. In turn, `COC[C@@H]1CN(CCN2CCN(C(=O)c3cc(C(F)(F)F)cc(S(N)(=O)=O)c3)[C@H](Cc3ccc(C)c(O)c3)C2)CCO1.Cl.Cl` yielded a melting point of 166 to 206 °C.

The molecule `COC[C@@H]1CN(CCN2CCN(C(=O)c3cc(C(F)(F)F)cc(C(F)(F)F)c3)[C@H](Cc3ccc(C(F)(F)F)cc3)C2)[C@@H](C)CO1.Cl.Cl` showed a melting point of 142 to 182 °C. With `COC[C@@H]1CN(CCN2CCN(C(=O)c3cc(C(F)(F)F)cc(C(F)(F)F)c3)[C@H](Cc3ccc(F)c(OC)c3)C2)[C@@H](C)CO1.Cl.Cl` the figure was 140 to 164 °C; with `COC[C@H]1CN(CCN2CCN(C(=O)c3cc(C(F)(F)F)cc(C(F)(F)F)c3)[C@H](Cc3ccc(Cl)c(O)c3)C2)CCO1.Cl.Cl`, 204 to 214 °C.

Consider `Cl.Cl.O=C(c1cc(C(F)(F)F)cc(C(F)(F)F)c1)N1CCN(CCN2[C@H](CO)CCC[C@@H]2CO)C[C@H]1Cc1ccc(C(F)(F)F)cc1`, for which the melting point lay within 164 to 167 °C.

With `COc1cc(C[C@@H]2CN(CCN3CCC[C@H]3CO)CCN2C(=O)c2cc(C(F)(F)F)cc(C(F)(F)F)c2)ccc1F.Cl.Cl`, the melting point lay within 198 to 201 °C. The molecule `COC[C@@H]1C[C@H](COC)CN(CCN2CCN(C(=O)c3cc(C(F)(F)F)cc(C(F)(F)F)c3)[C@H](Cc3ccc(F)c(OC)c3)C2)C1.Cl.Cl` displayed a melting point of 150 to 156 °C. In turn, `COC[C@@H]1CN(CCN2CCN(C(=O)c3cc(-c4ccncc4)cc(C(F)(F)F)c3)[C@H](Cc3ccc(C(F)(F)F)cc3)C2)CCO1.Cl.Cl.Cl` showed a melting point of 81 to 91 °C. Consider `CSc1cc(C(=O)N2CCN(CCN3C[C@@H](C)O[C@@H](C)C3)C[C@H]2Cc2ccc(C(F)(F)F)cc2)cc(C(F)(F)F)c1.Cl.Cl`, for which the melting point was in the range of 154 to 156 °C. For `C[C@@H]1CN(CCN2CCN(C(=O)c3cc(C(F)(F)F)cc(S(C)(=O)=O)c3)[C@H](Cc3ccc(C(F)(F)F)cc3)C2)C[C@H](C)O1.Cl.Cl`, the melting point was 188 to 195 °C.

As for `COc1cc(C[C@@H]2CN(CCN3CCc4ncccc4C3)CCN2C(=O)c2cc(SC)cc(C(F)(F)F)c2)ccc1F.Cl.Cl.Cl`, the melting point fell in the range of 143.3 to 147.5 °C. As to `COc1cc(C[C@@H]2CN(CCN3CCc4ncccc4C3)CCN2C(=O)c2cc(-c3ccncc3)cc(C(F)(F)F)c2)ccc1F.Cl.Cl.Cl.Cl`, the melting point fell in the range of 236.8 to 248.5 °C. `COC[C@@H]1CN(CCN2CCN(C(=O)c3cc(SC)cc(C(F)(F)F)c3)[C@H](Cc3ccc(C(F)(F)F)cc3)C2)CCO1.Cl.Cl` showed a melting point of 153 to 170 °C. As for `COC[C@@H]1CN(CCN2CCN(C(=O)c3cc(Cl)cc(C(F)(F)F)c3)[C@H](Cc3ccc(C(F)(F)F)cc3)C2)CCO1.Cl.Cl`, the melting point lay in the range of 168 to 173 °C. Molecule `COc1cc(C(=O)N2CCN(CCN3C[C@@H](C)O[C@@H](C)C3)C[C@H]2Cc2ccc(Cl)c(O)c2)cc(C(F)(F)F)c1.Cl.Cl` had a melting point of 177 to 182 °C. With `COc1cc(C[C@@H]2CN(CC#CCN3CCOCC3(C)C)CCN2C(=O)c2cc(C(F)(F)F)cc(C(F)(F)F)c2)ccc1F.Cl.Cl` the figure was 125 to 130 °C; with `C[C@@H]1CN(CCN2CCN(C(=O)c3cc(C(F)(F)F)cc(C(F)(F)F)c3)[C@H](Cc3ccc(F)c(F)c3)C2)C[C@H](C)O1.Cl.Cl`, 223 to 228 °C.

The molecule `COC[C@@H]1CN(CCN2CCN(C(=O)c3cc(C(F)(F)F)cc(C(F)(F)F)c3)[C@H](Cc3ccc(C(F)(F)F)cc3)C2)CCO1.Cl.Cl` displayed a melting point of 146 to 159 °C. `COC[C@@H]1CN(CCN2CCN(C(=O)c3cc(C(F)(F)F)cc(C(F)(F)F)c3)[C@H](Cc3ccc(C)c(F)c3)C2)CCO1.Cl.Cl`: the melting point was in the range of 148 to 160 °C. Regarding `COC[C@@H]1CN(CCN2CCN(C(=O)c3cc(C(F)(F)F)cc(C(F)(F)F)c3)[C@H](Cc3ccc(F)c(C)c3)C2)CCO1.Cl.Cl`, the melting point fell in the range of 151 to 156 °C. With `CC1(C)COCCN1CC#CCN1CCN(C(=O)c2cc(C(F)(F)F)cc(C(F)(F)F)c2)[C@H](Cc2ccc(C(F)(F)F)cc2)C1.Cl.Cl` the figure was 110 to 130 °C; with `Cl.Cl.O=C(c1cc(C(F)(F)F)cc(C(F)(F)F)c1)N1CCN(CCN2CCC(F)(F)CC2)C[C@H]1Cc1ccc(C(F)(F)F)cc1`, 209 to 253 °C.

Take `Cl.Cl.O=C(c1cc(C(F)(F)F)cc(C(F)(F)F)c1)N1CCN(Cc2cccnc2)C[C@H]1Cc1ccc(C(F)(F)F)cc1`: the melting point is 198 to 223 °C. The molecule `COC[C@@H]1CN(CCN2CCN(C(=O)c3cc(OC)cc(C(F)(F)F)c3)[C@H](Cc3ccc(C(F)(F)F)cc3)C2)CCO1.Cl.Cl` came in with a melting point of 126 to 155 °C. On to `CC1(C)COCCN1CC#CCN1CCN(C(=O)c2cc(C(F)(F)F)cc(C(F)(F)F)c2)[C@H](Cc2ccc(Cl)c(O)c2)C1.Cl.Cl`, for which the melting point lay within 181 to 186 °C. With `COc1cc(C(=O)N2CCN(CCN3C[C@@H](C)O[C@@H](C)C3)C[C@H]2Cc2ccc(Cl)cc2)cc(C(F)(F)F)c1.Cl.Cl` the figure was 90 to 120 °C; with `CC1(C)COCCN1CC#CCN1CCN(C(=O)c2cc(C(F)(F)F)cc(C(F)(F)F)c2)[C@H](Cc2ccc(F)cc2)C1.Cl.Cl`, 76.5 to 130.6 °C; with `Cl.Cl.O=C(c1cc(C(F)(F)F)cc(C(F)(F)F)c1)N1CCN(CCN2CCC(F)(F)CC2)C[C@H]1Cc1ccc(Cl)c(O)c1`, 166 to 170 °C.

In turn, `C[C@@H]1CN(CCN2CCN(C(=O)c3cc(C(F)(F)F)cc(C(F)(F)F)c3)[C@H](Cc3ccc4ccccc4c3)C2)C[C@H](C)O1.Cl.Cl` gave a melting point of 168 to 195 °C.

For the molecule `COc1cc(C(=O)N2CCN(CC#CCN3CCOCC3(C)C)C[C@H]2Cc2ccc3ccccc3c2)cc(C(F)(F)F)c1.Cl.Cl`, the melting point is 190 to 199 °C.

With `COc1cc(C(=O)N2CCN(CCN3CCC(F)(F)CC3)C[C@H]2Cc2ccc3ccccc3c2)cc(C(F)(F)F)c1.Cl.Cl`, the melting point lay in the range of 243 to 260 °C. For the molecule `COc1cc(C(=O)N2CCN(CC#CCN3CCOCC3(C)C)C[C@H]2Cc2c[nH]c3ccccc23)cc(C(F)(F)F)c1.Cl.Cl`, the melting point was in the range of 190 to 200 °C. For the molecule `COc1cc(C(=O)N2CCN(CCN3CCC(F)(F)CC3)C[C@H]2Cc2c[nH]c3ccccc23)cc(C(F)(F)F)c1.Cl.Cl`, the melting point lay within 130 to 140 °C.
